{"source": "patent US20230329283A1", "about": "(priority 2021, published 2023)", "key": {"[1]": {"tested_on": "colon bacillus (Escherichia coli)", "assay_type": "cell-based"}, "salmonella [2]": {"tested_on": "salmonella", "assay_type": "cell-based"}, "Clostridium perfringens [3]": {"tested_on": "Clostridium perfringens", "assay_type": "cell-based", "settings": "16 hours at 37° C., 105 CFU/mL, minimum concentration making the hole clear"}, "salmonella [4]": {"tested_on": "salmonella", "test": "Minimum bactericidal concentration (MBC)", "assay_type": "cell-based", "settings": "concentration inhibiting growth of 99.9% bacteria, 16h culture on solid medium"}, "Clostridium perfringens [5]": {"tested_on": "Clostridium perfringens", "assay_type": "cell-based", "settings": "concentration inhibiting growth of 99.9% bacteria, 16h culture on solid medium"}, "[6]": {"tested_on": "Four indicator bacteria (Escherichia coli, Salmonella, Staphylococcus aureus and Clostridium perfringens)", "assay_type": "cell-based", "settings": "FIG. 4"}, "[7]": {"tested_on": "four bacterial suspensions (Escherichia coli, Salmonella, Staphylococcus aureus and Clostridium perfringens)", "assay_type": "cell-based", "settings": "pepsin 3000 U/mL, pH 2.0, 37° C., 30-180 min, FIG. 5A"}, "[8]": {"tested_on": "four bacterial suspensions (Escherichia coli, Salmonella, Staphylococcus aureus and Clostridium perfringens)", "assay_type": "cell-based", "settings": "trypsin 250U/mL, pH 8.0, 37° C., 30-180 min, TrSub at MIC, FIG. 5B"}, "[9]": {"tested_on": "Escherichia coli, Salmonella, Staphylococcus aureus and Clostridium perfringens", "assay_type": "cell-based", "settings": "on Escherichia coli"}, "[10]": {"tested_on": "colon bacillus (Escherichia coli)", "settings": "concentration inhibiting growth of 99.9% bacteria, 16h culture on solid medium"}}}
{"substance": "TrSub (EFGAGKAQCAAAWLQCASGGTLGCGGGAVACQNYRQFQCRAA; the amino acid sequence of the recombinant antimicrobial peptide TrSub)", "values": [{"measurement": "MIC Gram-negative bacteria colon bacillus", "setting": "[1]", "value": 37.5, "unit": "µg/mL"}, {"measurement": "MIC Gram-negative bacteria salmonella", "setting": "salmonella [2]", "value": 37.5, "unit": "µg/mL"}, {"measurement": "MIC Gram-positive bacteria Clostridium perfringens", "setting": "Clostridium perfringens [3]", "value": 25, "unit": "µg/mL"}, {"measurement": "MBC Gram-negative bacteria salmonella", "setting": "salmonella [4]", "value": 75, "unit": "µg/mL"}, {"measurement": "MBC Gram-positive bacteria Clostridium perfringens", "setting": "Clostridium perfringens [5]", "value": 25, "unit": "µg/mL"}, {"measurement": "change in the inhibition rate of each bacterium after heat treatment", "setting": "[6]; boiling water for 20 min", "value": "almost no change"}, {"measurement": "inhibition rate after heat treatment", "setting": "[6]; boiling water, 25 min treatment", "value": "about 80%"}, {"measurement": "inhibition rate to various bacteria after being treated by pepsin", "setting": "[7]; TrSub at MIC", "value": "above 80%"}, {"measurement": "stability to pepsin", "setting": "[7]", "value": "good stability"}, {"measurement": "stability to trypsin", "setting": "[8]", "value": "poor"}, {"measurement": "inhibition rate of the two Gram-positive bacteria after trypsin treatment", "setting": "[8]; Gram-positive bacteria", "value": "about 80%"}, {"measurement": "antibacterial activity of the expression product", "setting": "[9]", "value": "inhibitory effect"}, {"measurement": "MBC Gram-negative bacteria colon bacillus", "setting": "[10]", "value": 37.5, "unit": "µg/mL"}]}
